This note sets out measurements from patent US20220387268A1, “OIL-IN-WATER MACROEMULSION” (SYMRISE AG, priority 2019, published 2022).

A short description of data set [1]: log P value (octanol:water). Type of data set: physicochemical. To be noted: water/n-octanol. The source says:
The partition coefficient (P) is the ratio of concentrations of a compound in a mixture of two immiscible solvents at equilibrium. This ratio is therefore a comparison of the solubility of the solute in these two liquids. In the chemical and pharmaceutical sciences, both phases usually are solvents. Most commonly, one of the solvents is water, while the second is hydrophobic such as 1-octanol.
Log P=log 10(Partition Coefficient)
Partition Coefficient,P=[organic]/[aqueous]

Another data set is described as follows: water solubility. The class given is physicochemical. The conditions noted are these: room temperature.

The log P is a log measure of how a compound divides between an organic and an aqueous phase. Read a high log P as a more lipophilic compound. `O=C1CCCCCCCCCCCC(=O)OCCO1` [ETHYLENBRASSYLAT]: in data set [1], the “log P” value was 4.71. For the same compound, the Water solubility in “water solubility” is 20.9 µg/mL.
Consider `CCCCCC/C(C=O)=C\c1ccccc1` [HEXYLZIMTALDEHYD ALPHA], for which the “log P” value in data set [1] came to 4.82. Also, the Water solubility in the data set “water solubility” was 1.2 µg/mL.
Regarding `CC(=O)OC1CCCCC1C(C)(C)C` (stereo not shown) [AGRUMEX LC], the Water solubility in the data set “water solubility” was 17.6 µg/mL.
With `CCCCCC1CCC(=O)O1` (stereo not shown) [ALDEHYD C18 SOG.], in the data set “water solubility”, the Water solubility amounted to 2373.1 µg/mL.
For the compound `CCCCCC1C(=O)CCC1CC(=O)OC` (stereo not shown) [HEDION], the Water solubility in “water solubility” was found to be 401.5 µg/mL.
Take `CC(C=O)Cc1ccc(C(C)C)cc1` (stereo not shown): the “log P” value in data set [1] is on record as 3.91. Moreover, the Water solubility in the data set “water solubility” was determined as 17.8 µg/mL.
Take `O=Cc1ccc2c(c1)OCO2` [HELIOTROPIN/PIPERONAL]: the “log P” value in data set [1] was 1.77. Further, the Water solubility in “water solubility” is 2260.1 µg/mL.
Taken in the same sequence, the figures for `CCC(C)(O)CCCC(C)C` (stereo not shown) [TETRAHYDROLINALOOL] were 3.6 and 492.4 µg/mL.
Taken in the same sequence, the figures for `C=CC(C)CCCC(C)(C)O` (stereo not shown) [DIHYDROMYRCENOL] were 3.47 and 671.2 µg/mL.
Consider `CCCC(=O)OC(C)(C)Cc1ccccc1` [DIMETHYLBENZYLCARBINYLBUTYRAT], for which the log partition coefficient (log P) in data set [1] turned out to be 4.43.
